In US5063229A, “Imidazolo [1,2-a]pyrimidines and medical use thereof” (Roussel Ulcaf, priority 1986, dated 1991):

tested on: rat peritoneal neutrophils; assay: Inhibition of ionophore-stimulated release of free arachidonic acid from [14C]-arachidonic acid pre-labelled rat peritoneal neutrophils; type: cell-based; settings: read-out: IC50, concentration required to inhibit by 50% compared to controls the release of radiolabelled products into supernatant liquid
Source text: The inhibition of ionophore-stimulated release of free arachidonic acid from [^14 C]-arachidonic acid pre-labelled rat peritoneal neutrophils was studied using modifications of the method of Ahnfelt-Ronne and Arrigoni-Martelli [Biochemical Pharmacol., (1982) Vol. 31, p. 2619]. The results below show the micromolar concentrations of test compound required to inhibit, by 50% compared to controls, the release of radiolabelled products into supernatant liquid (IC50 -μM).

Going from CCc1c(OC)nc2nc(C(=O)C#Cc3ccccc3)c(Br)n2c1C [Example 21, (3-bromo 6-ethyl 7-methoxy 5-methylimidazo [1,2-a]pyrimidin-2-yl) (2-phenylethy-1-yl) methanone] to CCc1c(OC)nc2nc(C(=O)C#Cc3ccccc3)cn2c1C [Example 18, (6-ethyl 7-methoxy 5-methylimidazo [1,2-a]pyrimidin-2-yl) phenylethynyl methanone], the IC50 rises from 1.5 µM to 12 µM (8-fold). The first is the more potent here.

C=C(C)C(=O)c1nc(SC)n(-c2ccc(F)cc2)c1Br [Example 12, [1-(4-fluorophenyl) 5-bromo 2-thiomethylimidazol-4-yl] isopropenyl methanone] and C=C(C)C(=O)c1nc(SC)n(-c2ccc(O)cc2)c1Br [Example 14, [5-bromo-1-(4-hydroxyphenyl)-2-methylthioimidazol-4-yl]-2-methyl-2-propen-1-one] cannot be ordered by IC50: 15 µM for the first, > 10 µM for the second.

Compared with C=C(C)C(=O)c1nc2nc(SC)c(CC)c(C)n2c1Br [Example 1, 1-(3-bromo-6-ethyl-5-methyl-7-methylthio-imidazo[1,2-a]pyrimidin-2-yl)-2-methyl-2-propen-1-one], C=C(C)C(=O)c1nc2nc(OC)c(CC)c(C)n2c1Br [Example 2, (3-bromo 6-ethyl 7-methoxy 5-methylimidazo [1,2-a]pyrimidin-2-yl) isopropenyl methanone] is 2.5-fold higher in IC50: 6.8 µM for the first, 17 µM for the second. The first is the more potent here.

Compared with C=CC(=O)c1nc(SC)n(-c2ccc(OC)cc2)c1Br [Example 13, [1-(4-methoxyphenyl) 5-bromo 2-thiomethylimidazol-4-yl] ethenyl methanone], C=C(C)C(=O)c1nc(SC)n(-c2ccc(OC)cc2)c1Br [Example 8, [1-(4-methoxyphenyl) 5-bromo 2-thiomethylimidazol-4-yl] isopropenyl methanone] is 3.1-fold higher in IC50: 2.3 µM for the first, 7.2 µM for the second. The first is the more potent here.

Compared with CCc1c(OC)nc2nc(C(=O)C#CC(C)(C)C)c(Br)n2c1C [Example 20, (3-bromo 6-ethyl 7-methoxy 5-methylimidazo [1,2-a]pyrimidin-2-yl) (3,3-dimethylbut-1-ynyl) methanone], CC#CC(=O)c1nc2nc(OC)c(CC)c(C)n2c1Br [Example 24, (3-bromo 6-ethyl 7-methoxy 5-methylimidazo [1,2-a]pyrimidin-2-yl) (propyn-1-ynyl) methanone] is 1.7-fold higher in IC50: 4.2 µM for the first, 7.2 µM for the second.

Compared with C=CC(=O)c1nc2nc(OC)c(CC)c(C)n2c1Br [Example 5, (3-bromo 6-ethyl 7-methoxy 5-methylimidazo [1,2-a]pyrimidin-2-yl) ethenyl methanone], CCc1c(OC)nc2nc(C(=O)C#CCO)c(Br)n2c1C [Example 22, 1-(3-bromo-6-ethyl-7-methoxy-5-methyl-imidazo[1,2-a]pyrimidin-2-yl)-4-hydroxy-2-butyn-1-one] is 35-fold higher in IC50: 1.7 µM for the first, 59 µM for the second. The first is the more potent here.

Going from O=C(C#Cc1ccccc1)c1cn2ccccc2n1 [Example 27, (imidazo [1,2-a]pyridin-2-yl) (2-phenylethyn-1-yl) methanone] to O=C(C#Cc1ccccc1)c1nc2ccccn2c1Br [Example 28, 3-bromoimidazo [1,2-a] pyridin-2-yl (2-phenylethyn-1-yl) methanone], the IC50 falls from 41 µM to 5.2 µM (7.9-fold). The second is the more potent here.

First: CCc1c(OC)nc2nc(C(=O)C#CCO)cn2c1C [Example 23, 1-(6-ethyl-7-methoxy-5-methylimidazo[1,2-a]pyrimidin-2-yl)-4-hydroxy-2-butyn-1-one]
Second: CCc1c(OC)nc2nc(C(=O)C#CC(C)(C)C)cn2c1C [Example 19, 1-(6-ethyl 7-methoxy 5-methylimidazo [1,2-a]pyrimidin-2-yl) (3,3-dimethylbut-1-ynyl) methanone]
The IC50 of the first is 2.9-fold higher: 46 µM for the first, 16 µM for the second.

Going from C=C(C)C(=O)c1nc2ccccn2c1Br [Example 25, (3-bromoimidazo [1,2-a]pyridin-2-yl) isopropenyl methanone (chlorhydrate)] to C=C(C)C(=O)c1cn2ccccc2n1 [Example 26, (imidazo [1,2-a]pyridin-2-yl) isopropenyl methanone], the IC50 rises from 28 µM to > 100 µM.

First: C=C(C)C(=O)c1nc2nc(OC)cc(C)n2c1Br [Example 4]
Second: C=C(C)C(=O)c1nc2nc(OC)c(CC)c(C)n2c1Cl [Example 3, (3-chloro 6-ethyl 7-methoxy 5-methylimidazo [1,2-a]pyrimidin-2-yl) isopropenyl methanone]
The IC50 of the first is 2.8-fold lower: 7.4 µM for the first, 21 µM for the second. The first is the more potent here.

Going from C=C(C)C(=O)c1nc(SC(C)C)n(CC)c1Br [Example 15, (1-ethyl 5-bromo 2-thioisopropyl imidazol-4-yl) isopropenyl methanone] to C=C(C)C(=O)c1nc(SC(C)C)n(-c2ccc(C)cc2)c1Br [Example 11, [1-(4-methylphenyl) 5-bromo 2-thioisopropylimidazol-4-yl] isopropenyl methanone], the IC50 falls from 17 µM to 3.7 µM (4.6-fold).

Going from C=C(C)C(=O)c1nc([S+]([O-])C(C)C)n(-c2ccc(CC)cc2)c1Cl (stereo not drawn) [Example 16, [5-chloro-1-(4-ethylphenyl)-2-(prop-2-ylsulfinyl)-imidazol-4-yl]-2-methyl-2-propen-1-one] to C=C(C)C(=O)c1nc(SC)n(-c2ccc(CC)cc2)c1Br [Example 7, [1-(4-ethylphenyl) 5-bromo 2-thiomethylimidazol-4-yl] isopropenyl methanone], the IC50 falls from 4.4 µM to 2.5 µM (1.8-fold). The second is the more potent here.

C=C(C)C(=O)c1nc(SC)n(-c2ccc(OC)cc2)c1Cl [Example 9, [1-(4-methoxyphenyl) 5-chloro 2-thiomethylimidazol-4-yl] isopropenyl methanone] and C=C(C)C(=O)c1nc(SC)n(-c2ccc(C)cc2)c1Br [Example 10, [1-(4-methylphenyl) 5-bromo 2-thiomethylimidazol-4-yl] isopropenyl methanone] are within 1.5-fold of each other in IC50: 9.1 µM for the first, 10 µM for the second.

C=C(C)C(=O)c1cn(-c2ccc(CC)cc2)c(SC)n1 [Example 6, [1-(4-ethylphenyl) 2-imidazol-4-yl] isopropenyl methanone] gave an IC50 of 3.8 µM.
